Columns and labels:
[1] = target: AP2-associated protein kinase 1 (Homo sapiens) (UniProt Q2M2I8); details: Compound concentration 1000.0 nM
[2] = target: Bone morphogenetic protein receptor type-1A (Homo sapiens) (UniProt P36894); details: Compound concentration 1000.0 nM
[3] = target: Calcium/calmodulin-dependent protein kinase type 1B (Homo sapiens) (UniProt Q6P2M8); details: Compound concentration 1000.0 nM
[4] = target: Calcium/calmodulin-dependent protein kinase type II subunit alpha (Homo sapiens) (UniProt Q9UQM7); details: Compound concentration 1000.0 nM
[5] = target: Serine/threonine-protein kinase Chk1 (Homo sapiens) (UniProt O14757); details: Compound concentration 1000.0 nM
[6] = target: Dual specificity protein kinase CLK2 (Homo sapiens) (UniProt P49760); details: Compound concentration 1000.0 nM
[7] = target: Megakaryocyte-associated tyrosine-protein kinase (Homo sapiens) (UniProt P42679); details: Compound concentration 1000.0 nM
[8] = target: Serine/threonine-protein kinase/endoribonuclease IRE1 (Homo sapiens) (UniProt O75460); details: Compound concentration 1000.0 nM
[9] = target: Vascular endothelial growth factor receptor 3 (Homo sapiens) (UniProt P35916); details: Compound concentration 1000.0 nM
[10] = target: Tyrosine-protein kinase FRK (Homo sapiens) (UniProt P42685); details: Compound concentration 1000.0 nM
[11] = target: Tyrosine-protein kinase JAK2 (Homo sapiens) (UniProt O60674); details: Compound concentration 1000.0 nM
[12] = test system: Mast/stem cell growth factor receptor Kit (Homo sapiens), P10721 [D816H]; details: Compound concentration 1000.0 nM
[13] = test system: Mast/stem cell growth factor receptor Kit (Homo sapiens), P10721 [V559D,T670I]; details: Compound concentration 1000.0 nM
[14] = target: Serine/threonine-protein kinase LATS1 (Homo sapiens) (UniProt O95835); details: Compound concentration 1000.0 nM
[15] = target: Serine/threonine-protein kinase LATS2 (Homo sapiens) (UniProt Q9NRM7); details: Compound concentration 1000.0 nM
[16] = target: LIM domain kinase 1 (Homo sapiens) (UniProt P53667); details: Compound concentration 1000.0 nM
[17] = target: Mitogen-activated protein kinase kinase kinase 4 (Homo sapiens) (UniProt Q9Y6R4); details: Compound concentration 1000.0 nM
[18] = target: Dual specificity mitogen-activated protein kinase kinase 3 (Homo sapiens) (UniProt P46734); details: Compound concentration 1000.0 nM
[19] = target: Dual specificity mitogen-activated protein kinase kinase 6 (Homo sapiens) (UniProt P52564); details: Compound concentration 1000.0 nM
[20] = target: Maternal embryonic leucine zipper kinase (Homo sapiens) (UniProt Q14680); details: Compound concentration 1000.0 nM
[21] = target: Serine/threonine-protein kinase Nek10 (Homo sapiens) (UniProt Q6ZWH5); details: Compound concentration 1000.0 nM
[22] = target: Serine/threonine-protein kinase Nek2 (Homo sapiens) (UniProt P51955); details: Compound concentration 1000.0 nM
[23] = target: Serine/threonine-protein kinase PAK 2 (Homo sapiens) (UniProt Q13177); details: Compound concentration 1000.0 nM
[24] = target: Platelet-derived growth factor receptor beta (Homo sapiens) (UniProt P09619); details: Compound concentration 1000.0 nM
[25] = target: Phosphatidylinositol 4-kinase beta (Homo sapiens) (UniProt Q9UBF8); details: Compound concentration 1000.0 nM
[26] = target: Serine/threonine-protein kinase pim-3 (Homo sapiens) (UniProt Q86V86); details: Compound concentration 1000.0 nM
[27] = target: Phosphatidylinositol 4-phosphate 5-kinase type-1 alpha (Homo sapiens) (UniProt Q99755); details: Compound concentration 1000.0 nM
[28] = target: Serine/threonine-protein kinase PRP4 homolog (Homo sapiens) (UniProt Q13523); details: Compound concentration 1000.0 nM
[29] = test system: Proto-oncogene tyrosine-protein kinase receptor Ret (Homo sapiens), P07949 [V804M]; details: Compound concentration 1000.0 nM
[30] = target: Ribosomal protein S6 kinase alpha-4 (Homo sapiens) (UniProt O75676); details: Compound concentration 1000.0 nM
[31] = target: Serine/threonine-protein kinase SIK2 (Homo sapiens) (UniProt Q9H0K1); details: Compound concentration 1000.0 nM
[32] = target: SRSF protein kinase 3 (Homo sapiens) (UniProt Q9UPE1); details: Compound concentration 1000.0 nM
[33] = target: Tyrosine-protein kinase SYK (Homo sapiens) (UniProt P43405); details: Compound concentration 1000.0 nM
[34] = target: Serine/threonine-protein kinase TBK1 (Homo sapiens) (UniProt Q9UHD2); details: Compound concentration 1000.0 nM
[35] = target: Serine/threonine-protein kinase TNNI3K (Homo sapiens) (UniProt Q59H18); details: Compound concentration 1000.0 nM
[36] = target: Serine/threonine-protein kinase ULK2 (Homo sapiens) (UniProt Q8IYT8); details: Compound concentration 1000.0 nM
[37] = target: Vascular endothelial growth factor receptor 2 (Homo sapiens) (UniProt P35968); details: Compound concentration 1000.0 nM
[38] = target: Wee1-like protein kinase 2 (Homo sapiens) (UniProt P0C1S8); details: Compound concentration 1000.0 nM
[39] = target: Serine/threonine-protein kinase WNK1 (Homo sapiens) (UniProt Q9H4A3); details: Compound concentration 1000.0 nM
[40] = target: Serine/threonine-protein kinase WNK2 (Homo sapiens) (UniProt Q9Y3S1); details: Compound concentration 1000.0 nM
[41] = target: Serine/threonine-protein kinase 32B (Homo sapiens) (UniProt Q9NY57); details: Compound concentration 1000.0 nM
[42] = target: 5-hydroxytryptamine receptor 2C (Homo sapiens) (UniProt P28335); details: Compound concentration 10.0 uM
[43] = target: Mu-type opioid receptor (Homo sapiens) (UniProt P35372); details: Compound concentration 10.0 uM
[44] = target: Kappa-type opioid receptor (Homo sapiens) (UniProt P41145); details: Compound concentration 10.0 uM
[45] = target: Alpha-1B adrenergic receptor (Homo sapiens) (UniProt P35368); details: Compound concentration 10.0 uM
Alpha-1B adrenergic receptor (Homo sapiens), sequence (P35368 whole entry): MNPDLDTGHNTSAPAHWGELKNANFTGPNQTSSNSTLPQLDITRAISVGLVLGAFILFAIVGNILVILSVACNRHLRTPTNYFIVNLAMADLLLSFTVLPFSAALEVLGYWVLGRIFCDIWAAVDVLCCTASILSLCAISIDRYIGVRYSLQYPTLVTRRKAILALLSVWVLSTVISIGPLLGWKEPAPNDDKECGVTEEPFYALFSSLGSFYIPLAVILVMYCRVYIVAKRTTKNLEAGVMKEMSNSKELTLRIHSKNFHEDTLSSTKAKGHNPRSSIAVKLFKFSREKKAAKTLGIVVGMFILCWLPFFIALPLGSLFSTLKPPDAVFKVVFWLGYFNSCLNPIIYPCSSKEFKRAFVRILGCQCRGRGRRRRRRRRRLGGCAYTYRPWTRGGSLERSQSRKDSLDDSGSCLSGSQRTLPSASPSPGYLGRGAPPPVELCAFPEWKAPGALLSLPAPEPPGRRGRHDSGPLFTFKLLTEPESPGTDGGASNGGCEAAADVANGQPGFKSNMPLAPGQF

Serine/threonine-protein kinase WNK2 (Homo sapiens), sequence (Q9Y3S1 whole entry): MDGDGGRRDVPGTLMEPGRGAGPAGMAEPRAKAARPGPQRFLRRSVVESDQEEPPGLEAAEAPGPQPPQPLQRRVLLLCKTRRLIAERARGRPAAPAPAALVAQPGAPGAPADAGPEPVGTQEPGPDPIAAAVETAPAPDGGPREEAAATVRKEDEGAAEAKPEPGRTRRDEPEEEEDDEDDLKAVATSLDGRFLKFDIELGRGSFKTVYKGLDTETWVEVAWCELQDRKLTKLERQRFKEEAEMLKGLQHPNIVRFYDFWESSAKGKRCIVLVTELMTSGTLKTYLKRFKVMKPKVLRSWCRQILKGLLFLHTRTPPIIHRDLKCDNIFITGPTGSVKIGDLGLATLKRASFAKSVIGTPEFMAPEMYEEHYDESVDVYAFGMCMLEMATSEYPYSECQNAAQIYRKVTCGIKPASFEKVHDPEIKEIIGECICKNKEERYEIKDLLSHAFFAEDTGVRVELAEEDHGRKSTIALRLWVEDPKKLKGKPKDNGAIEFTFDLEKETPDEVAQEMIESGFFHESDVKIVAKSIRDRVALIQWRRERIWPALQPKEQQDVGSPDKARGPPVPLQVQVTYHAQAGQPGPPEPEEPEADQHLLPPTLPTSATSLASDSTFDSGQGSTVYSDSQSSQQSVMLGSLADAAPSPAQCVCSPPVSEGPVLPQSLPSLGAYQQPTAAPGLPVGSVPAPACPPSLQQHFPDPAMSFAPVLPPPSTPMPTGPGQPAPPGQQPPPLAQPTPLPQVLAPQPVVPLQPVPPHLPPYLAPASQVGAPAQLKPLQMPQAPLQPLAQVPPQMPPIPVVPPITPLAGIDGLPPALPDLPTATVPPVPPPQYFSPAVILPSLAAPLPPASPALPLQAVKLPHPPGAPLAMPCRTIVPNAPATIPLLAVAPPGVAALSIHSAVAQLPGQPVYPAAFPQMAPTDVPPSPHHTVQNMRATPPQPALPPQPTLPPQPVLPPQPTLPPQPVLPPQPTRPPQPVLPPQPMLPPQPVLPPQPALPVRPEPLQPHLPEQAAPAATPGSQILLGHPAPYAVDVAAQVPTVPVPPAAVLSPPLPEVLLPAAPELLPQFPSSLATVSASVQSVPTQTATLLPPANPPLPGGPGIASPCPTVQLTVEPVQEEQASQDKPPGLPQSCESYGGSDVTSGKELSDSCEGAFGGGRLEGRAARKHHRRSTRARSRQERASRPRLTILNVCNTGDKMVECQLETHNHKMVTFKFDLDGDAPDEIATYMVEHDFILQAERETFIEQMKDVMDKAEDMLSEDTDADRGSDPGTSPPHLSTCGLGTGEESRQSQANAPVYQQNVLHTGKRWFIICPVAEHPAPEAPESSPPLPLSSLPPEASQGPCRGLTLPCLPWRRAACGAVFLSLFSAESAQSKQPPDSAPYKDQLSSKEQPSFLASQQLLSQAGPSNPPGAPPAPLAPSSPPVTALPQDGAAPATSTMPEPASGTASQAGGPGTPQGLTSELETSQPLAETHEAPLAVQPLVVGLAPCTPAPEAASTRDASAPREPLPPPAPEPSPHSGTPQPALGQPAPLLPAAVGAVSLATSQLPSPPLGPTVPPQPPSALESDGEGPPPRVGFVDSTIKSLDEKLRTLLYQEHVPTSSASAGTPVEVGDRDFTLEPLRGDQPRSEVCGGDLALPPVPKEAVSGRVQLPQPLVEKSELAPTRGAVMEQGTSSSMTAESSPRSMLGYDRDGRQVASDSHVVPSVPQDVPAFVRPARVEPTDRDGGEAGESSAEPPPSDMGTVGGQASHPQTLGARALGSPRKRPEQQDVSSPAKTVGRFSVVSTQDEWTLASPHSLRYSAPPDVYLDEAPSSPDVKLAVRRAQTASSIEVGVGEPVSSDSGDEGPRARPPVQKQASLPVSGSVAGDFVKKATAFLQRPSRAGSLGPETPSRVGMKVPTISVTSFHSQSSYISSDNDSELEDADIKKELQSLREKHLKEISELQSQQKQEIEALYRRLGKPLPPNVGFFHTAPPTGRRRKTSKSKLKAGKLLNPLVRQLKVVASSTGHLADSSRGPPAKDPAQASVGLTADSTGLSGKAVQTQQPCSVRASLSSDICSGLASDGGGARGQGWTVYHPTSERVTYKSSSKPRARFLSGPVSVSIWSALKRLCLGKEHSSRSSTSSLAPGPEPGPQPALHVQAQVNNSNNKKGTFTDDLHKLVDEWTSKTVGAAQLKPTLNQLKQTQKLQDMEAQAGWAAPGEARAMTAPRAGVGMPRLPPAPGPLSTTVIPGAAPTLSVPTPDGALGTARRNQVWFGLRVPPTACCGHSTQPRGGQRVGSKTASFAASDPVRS
Proto-oncogene tyrosine-protein kinase receptor Ret (Homo sapiens), P07949 [V804M], sequence (P07949 whole entry V804M): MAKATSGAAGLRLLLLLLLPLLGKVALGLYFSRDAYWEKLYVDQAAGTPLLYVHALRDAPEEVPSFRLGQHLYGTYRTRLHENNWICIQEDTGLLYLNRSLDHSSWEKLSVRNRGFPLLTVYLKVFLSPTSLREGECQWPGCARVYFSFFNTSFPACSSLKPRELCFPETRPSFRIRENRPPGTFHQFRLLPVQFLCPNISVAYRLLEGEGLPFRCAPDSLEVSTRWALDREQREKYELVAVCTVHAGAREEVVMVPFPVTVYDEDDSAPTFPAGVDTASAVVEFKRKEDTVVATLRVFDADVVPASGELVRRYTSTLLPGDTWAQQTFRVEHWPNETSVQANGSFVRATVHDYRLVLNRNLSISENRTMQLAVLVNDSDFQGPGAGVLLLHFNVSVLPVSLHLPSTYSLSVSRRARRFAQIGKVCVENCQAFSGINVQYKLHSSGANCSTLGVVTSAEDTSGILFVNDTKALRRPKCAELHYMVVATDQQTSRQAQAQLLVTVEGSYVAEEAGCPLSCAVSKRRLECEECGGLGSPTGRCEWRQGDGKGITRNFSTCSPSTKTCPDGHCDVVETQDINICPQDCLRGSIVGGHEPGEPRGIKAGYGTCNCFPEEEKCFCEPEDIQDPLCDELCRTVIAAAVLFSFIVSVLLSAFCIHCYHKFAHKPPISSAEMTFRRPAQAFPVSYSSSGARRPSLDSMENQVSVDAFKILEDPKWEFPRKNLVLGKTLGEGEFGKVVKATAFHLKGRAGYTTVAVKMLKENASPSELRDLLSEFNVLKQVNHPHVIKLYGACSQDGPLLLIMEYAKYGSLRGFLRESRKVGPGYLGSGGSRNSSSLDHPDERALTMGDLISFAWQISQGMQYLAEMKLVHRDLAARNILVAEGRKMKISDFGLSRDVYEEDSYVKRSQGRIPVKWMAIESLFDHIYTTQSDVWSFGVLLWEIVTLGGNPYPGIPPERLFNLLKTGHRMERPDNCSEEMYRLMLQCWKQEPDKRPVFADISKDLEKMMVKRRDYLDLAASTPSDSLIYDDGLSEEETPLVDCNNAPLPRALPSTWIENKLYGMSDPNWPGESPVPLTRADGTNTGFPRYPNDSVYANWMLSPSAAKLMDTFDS
Calcium/calmodulin-dependent protein kinase type 1B (Homo sapiens), sequence (Q6P2M8 whole entry): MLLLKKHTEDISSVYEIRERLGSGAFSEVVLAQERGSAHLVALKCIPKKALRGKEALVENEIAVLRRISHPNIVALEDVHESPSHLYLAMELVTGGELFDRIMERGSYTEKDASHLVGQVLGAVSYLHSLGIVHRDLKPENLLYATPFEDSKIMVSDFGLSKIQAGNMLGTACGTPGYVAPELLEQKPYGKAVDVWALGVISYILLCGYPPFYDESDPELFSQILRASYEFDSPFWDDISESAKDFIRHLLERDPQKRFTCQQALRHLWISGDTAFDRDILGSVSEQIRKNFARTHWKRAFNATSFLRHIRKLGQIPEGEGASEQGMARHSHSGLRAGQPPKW
Wee1-like protein kinase 2 (Homo sapiens), sequence (P0C1S8 whole entry, looked up): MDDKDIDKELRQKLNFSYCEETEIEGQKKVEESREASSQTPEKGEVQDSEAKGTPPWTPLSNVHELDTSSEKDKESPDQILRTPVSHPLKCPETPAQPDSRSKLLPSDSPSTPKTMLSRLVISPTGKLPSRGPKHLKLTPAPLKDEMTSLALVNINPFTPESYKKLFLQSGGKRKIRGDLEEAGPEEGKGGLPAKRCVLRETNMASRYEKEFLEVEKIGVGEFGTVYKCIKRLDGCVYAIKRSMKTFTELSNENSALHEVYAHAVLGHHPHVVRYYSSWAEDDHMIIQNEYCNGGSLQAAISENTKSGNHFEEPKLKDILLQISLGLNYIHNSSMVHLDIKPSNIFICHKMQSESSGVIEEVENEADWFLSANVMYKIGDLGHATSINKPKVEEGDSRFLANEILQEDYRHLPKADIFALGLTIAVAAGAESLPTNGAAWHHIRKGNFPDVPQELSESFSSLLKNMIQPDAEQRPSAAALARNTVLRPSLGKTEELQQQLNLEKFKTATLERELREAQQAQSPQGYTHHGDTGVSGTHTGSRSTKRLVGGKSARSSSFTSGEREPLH

CO[C@@H](C)c1c(Nc2ccc([C@@H](N(C)C(=O)C3CCS(=O)(=O)CC3)C(F)(F)F)cc2)cnc2cc(Cl)nn12 [NVS-MALT1-C]
inactive: residual activity [1] 96% | residual activity [2] 100% | residual activity [3] 100% | residual activity [4] 83% | residual activity [5] 95% | residual activity [6] 100% | residual activity [7] 98% | residual activity [8] 100% | residual activity [9] 84% | residual activity [10] 91% | residual activity [11] 98% | residual activity [12] 100% | residual activity [13] 82% | residual activity [14] 98% | residual activity [15] 88% | residual activity [16] 92% | residual activity [17] 89% | residual activity [18] 90% | residual activity [19] 92% | residual activity [20] 52% | residual activity [21] 100% | residual activity [22] 94% | residual activity [23] 81% | residual activity [24] 100% | residual activity [25] 100% | residual activity [26] 97% | residual activity [27] 89% | residual activity [28] 91% | residual activity [29] 87% | residual activity [30] 94% | residual activity [31] 92% | residual activity [32] 100% | residual activity [33] 90% | residual activity [34] 77% | residual activity [35] 91% | residual activity [36] 92% | residual activity [37] 95% | residual activity [38] 100% | residual activity [39] 98% | residual activity [40] 100% | residual activity [41] 95% | inhibition [42] 3.25% | inhibition [43] 6.39% | inhibition [44] 29.4% | inhibition [45] 5.97%

CO[C@@H](C)c1c(Nc2ccc([C@H](N(C)C(=O)C3CCS(=O)(=O)CC3)C(F)(F)F)cc2)cnc2cc(Cl)nn12 [NVS-MALT1]
inactive: residual activity [1] 84% | residual activity [2] 71% | residual activity [3] 100% | residual activity [4] 83% | residual activity [5] 91% | residual activity [6] 100% | residual activity [7] 99% | residual activity [8] 91% | residual activity [9] 89% | residual activity [10] 80% | residual activity [11] 100% | residual activity [12] 100% | residual activity [13] 86% | residual activity [14] 88% | residual activity [15] 100% | residual activity [16] 100% | residual activity [17] 89% | residual activity [18] 93% | residual activity [19] 91% | residual activity [20] 59% | residual activity [21] 100% | residual activity [22] 100% | residual activity [23] 76% | residual activity [24] 100% | residual activity [25] 82% | residual activity [26] 86% | residual activity [27] 100% | residual activity [28] 100% | residual activity [29] 94% | residual activity [30] 86% | residual activity [31] 87% | residual activity [32] 100% | residual activity [33] 82% | residual activity [34] 59% | residual activity [35] 73% | residual activity [36] 96% | residual activity [37] 100% | residual activity [38] 88% | residual activity [39] 100% | residual activity [40] 98% | residual activity [41] 89% | inhibition [42] -4.22% | inhibition [43] 6.13% | inhibition [44] 31.9% | inhibition [45] 27.6%

— ChEMBL document CHEMBL4507320, “Data for DCP probe NVS-MALT1” (2021)
